Data as given in patent publication US7211577B2, “Water-soluble phenylpyridazine derivative and medicine containing the same” (Kowa Co., Ltd., priority 2003, dated 2007).

SMILES	melting point
CC(C)Cn1nc(-c2ccc(F)c(F)c2)cc(CN2CCN(C)CC2)c1=O.Cl.Cl	242.5 to 243.4 °C
CSc1ccc(-c2cc(CN3CCN(C)CC3)c(=O)n(CC(C)C)n2)cc1.Cl.Cl	242.6 to 243.7 °C
CC(C)Cn1nc(-c2ccc([S+](C)[O-])cc2)cc(CN2CCN(C)CC2)c1=O.Cl.Cl (stereo not drawn)	224.5 to 229.1 °C (dec.)
CC(C)Cn1nc(-c2ccc([S+](C)[O-])cc2)cc(CN(C)C)c1=O.Cl (stereo not drawn)	204.2 to 206 °C
CN1CCN(Cc2cc(-c3ccc(S(C)(=O)=O)cc3)nn(CC3CC3)c2=O)CC1.Cl.Cl	209 to 211.4 °C
CN(C)Cc1cc(-c2ccc(S(C)(=O)=O)cc2)nn(CC2CC2)c1=O.Cl	239.5 to 240.7 °C
COc1ccc(-c2cc(CN3CCN(C)CC3)c(=O)n(CC(C)C)n2)cc1F.Cl.Cl	236.9 to 237 °C
COc1ccc(-c2cc(CN(C)C)c(=O)n(CC(C)C)n2)cc1F.Cl	212.4 to 212.8 °C
Cc1c(-c2ccccc2)nn(CC(C)C)c(=O)c1N1CCNCC1.Cl.Cl	154.3 to 159.5 °C
CC(C)Cn1nc(-c2ccccc2)cc(CN2CCN(C)CC2)c1=O.Cl.Cl	243.8 to 244.3 °C
Cc1ccc(-c2cc(CN3CCN(C)CC3)c(=O)n(CC(C)C)n2)cc1F.Cl.Cl	248.5 to 252 °C (dec.)
CC(C)Cn1nc(-c2ccccc2)cc(CN(C)C)c1=O.Cl	221.7 to 222.3 °C
Cc1c(-c2ccc(C(F)(F)F)cc2)nn(CC(C)C)c(=O)c1N1CCN(C)CC1.Cl.Cl	249.9 to 252.8 °C
CC(C)Cn1nc(-c2ccc(C(F)(F)F)cc2)cc(CN(C)C)c1=O.Cl	242.2 to 242.3 °C
CC(C)Cn1nc(-c2ccc(-c3ccccc3)cc2)cc(CN(C)C)c1=O.Cl	243.9 to 244.1 °C
COc1ccc(-c2cc(CN(C)C)c(=O)n(CC(C)C)n2)cc1Cl.Cl	213.6 to 214.3 °C

Other lines, results leading:

melting point	SMILES
182.5 to 186 °C	CC(C)Cn1nc(-c2ccc(F)c(F)c2)cc(CN2CCNCC2)c1=O.Cl.Cl
162.7 to 180.7 °C (dec.)	Cc1cc(-c2cc(CN3CCNCC3)c(=O)n(Cc3ccccc3)n2)ccc1F.Cl.Cl
240 to 242.5 °C (dec.)	Cc1cc(-c2cc(CN3CCN(C)CC3)c(=O)n(Cc3ccccc3)n2)ccc1F.Cl.Cl
225.3 to 226 °C	Cc1cc(-c2cc(CN(C)C)c(=O)n(Cc3ccccc3)n2)ccc1F.Cl
171.1 to 187.1 °C (dec.)	Cc1cc(-c2cc(CN3CCNCC3)c(=O)n(CC=Cc3ccccc3)n2)ccc1F.Cl.Cl
236.1 to 237.1 °C	Cc1cc(-c2cc(CN3CCN(C)CC3)c(=O)n(CC=Cc3ccccc3)n2)ccc1F.Cl.Cl
183.6 to 184.5 °C	Cc1cc(-c2cc(CN(C)C)c(=O)n(CC=Cc3ccccc3)n2)ccc1F.Cl
248.5 to 253.7 °C (dec.)	CSc1ccc(-c2cc(CN3CCNCC3)c(=O)n(CC(C)C)n2)cc1.Cl.Cl
222.4 to 224.2 °C	CC(C)Cn1nc(-c2ccc(S(C)(=O)=O)cc2)cc(CN2CCNCC2)c1=O.Cl.Cl
186.2 to 195 °C (dec.)	Cc1ccc(-c2cc(CN3CCNCC3)c(=O)n(CC(C)C)n2)cc1F.Cl.Cl
246.4 to 249.7 °C (dec.)	Cc1cc(-c2cc(CN3CCN(C)CC3)c(=O)n(Cc3ccc(Cl)cc3)n2)ccc1F.Cl.Cl
191 to 202 °C (dec.)	Cc1cc(-c2cc(CN3CCN(C)CC3)c(=O)n(Cc3ccccc3Cl)n2)ccc1F.Cl.Cl
163 to 177 °C (dec.)	COc1ccc(-c2cc(CN3CCNCC3)c(=O)n(CC(C)C)n2)cc1F.Cl.Cl
210.8 to 212.5 °C	CC(C)Cn1nc(-c2ccc(C(F)(F)F)cc2)cc(CN2CCNCC2)c1=O.Cl.Cl
226.8 to 228 °C	CC(C)Cn1nc(-c2ccc(-c3ccccc3)cc2)cc(CN2CCNCC2)c1=O.Cl.Cl
262.2 to 263.6 °C	CC(C)Cn1nc(-c2ccc(-c3ccccc3)cc2)cc(CN2CCN(C)CC2)c1=O.Cl.Cl
203.6 to 204.5 °C	COc1ccc(-c2cc(CN3CCNCC3)c(=O)n(CC(C)C)n2)cc1Cl.Cl.Cl
